Measured values taken from the NIST ThermoML archive (doi:10.1021/je030163d).

Assay: xn = mol fraction of the nth substance listed
Conditions: 101.3 kPa, Liquid; for viscosity: Capillary tube (Ostwald / Ubbelohde) method; for mass density: Pycnometric method

OCc1ccccc1 [benzenemethanol] + CN(C)C=O
Conditions | mass density, 298.15 K [kg/m3] | mass density, 303.15 K [kg/m3] | mass density, 308.15 K [kg/m3] | mass density, 313.15 K [kg/m3] | viscosity, 298.15 K [mPa·s] | viscosity, 303.15 K [mPa·s] | viscosity, 308.15 K [mPa·s] | viscosity, 313.15 K [mPa·s]
x2 = 0 | 1041.3 | 1037.5 | 1033.7 | 1029.4 | 5.16 | 4.67 | 4.004 | 3.52
x2 = 0.1088 | 1036.1 | 1032.3 | 1028.5 | 1024.3 | 4.473 | 4.06 | 3.51 | 3.106
x2 = 0.1712 | 1032.5 | 1028.7 | 1024.9 | 1020.6 | 4.011 | 3.648 | 3.17 | 2.817
x2 = 0.3055 | 1022.7 | 1018.8 | 1014.9 | 1010.6 | 3.14 | 2.87 | 2.517 | 2.26
x2 = 0.4003 | 1014.8 | 1010.8 | 1006.8 | 1002.4 | 2.59 | 2.378 | 2.1 | 1.9
x2 = 0.5393 | 1001.3 | 997.2 | 993.1 | 988.7 | 2.02 | 1.86 | 1.67 | 1.52
x2 = 0.5865 | 996.1 | 992 | 987.9 | 983.4 | 1.85 | 1.71 | 1.541 | 1.411
x2 = 0.717 | 980.7 | 976.4 | 972.1 | 967.6 | 1.44 | 1.335 | 1.218 | 1.127
x2 = 0.7962 | 970.3 | 965.9 | 961.5 | 956.9 | 1.23 | 1.146 | 1.054 | 0.982
x2 = 0.8972 | 957.6 | 953.1 | 948.7 | 944 | 1.001 | 0.938 | 0.872 | 0.819
